{"source": "patent US11219627B2", "about": "“Clearance of amyloid beta” (priority 2014, dated 2022)", "key": {"nicotinic receptors": {"system": "nicotinic receptors", "settings": "cited from earlier work"}, "[1]": {"system": "mild-to-moderate AD patients", "assay": "two-year randomized trial of galantamine and placebo", "type": "in vivo, human", "settings": "24 months"}, "α7 nicotinic receptors": {"target": "T1, α7 nicotinic receptors (Rattus norvegicus, UniProt Q05941)", "T1 construct": "Primary cultured rat neurons can be depolarized by the application of 1.5 mM choline; endogenous in cells; host or cells: primary cultured rat neurons", "T1 sequence (Q05941 23-502)": "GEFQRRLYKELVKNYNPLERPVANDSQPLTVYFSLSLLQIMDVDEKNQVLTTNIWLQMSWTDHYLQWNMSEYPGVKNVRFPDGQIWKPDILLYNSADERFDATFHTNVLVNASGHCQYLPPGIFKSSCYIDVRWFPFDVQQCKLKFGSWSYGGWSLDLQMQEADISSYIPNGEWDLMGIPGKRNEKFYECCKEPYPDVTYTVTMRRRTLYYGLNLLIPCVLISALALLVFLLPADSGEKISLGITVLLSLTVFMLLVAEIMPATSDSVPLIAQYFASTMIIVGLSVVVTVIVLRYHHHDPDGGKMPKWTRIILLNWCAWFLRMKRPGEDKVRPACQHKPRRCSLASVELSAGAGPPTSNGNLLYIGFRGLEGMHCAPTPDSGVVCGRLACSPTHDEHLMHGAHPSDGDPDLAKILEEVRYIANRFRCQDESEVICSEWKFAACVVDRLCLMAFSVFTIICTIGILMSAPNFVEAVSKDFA", "settings": "1 μM; 1.5 mM choline; cited from earlier work"}, "[2]": {"settings": "human patients; cited from earlier work"}, "[3]": {"system": "Mice with lesions of the nucleus basalis magnocellularis (nBm)", "settings": "cited from earlier work"}, "[4]": {"system": "mild-to-moderate AD patients", "settings": "cited from earlier work"}, "MCI patients": {"system": "MCI patients", "settings": "cited from earlier work"}, "APdE9 mice": {"system": "APdE9 mice", "settings": "cited from earlier work; for insoluble Aβ in mouse brains: 2 months"}, "[5]": {"system": "mice transgenic for a single, different Swedish APP mutation", "settings": "ten days at 2 mg/kg/day; cited from earlier work"}, "[6]": {"system": "mice transgenic for an anti-NGF (nerve growth factor) antibody", "settings": "3.5 mg/kg/day, cited from earlier work"}, "[7]": {"system": "Primary rat cultured cortical neurons", "settings": "cited from earlier work"}, "[8]": {"system": "adrenal chromaffin and human neuroblastoma cells", "settings": "100 to 300 nM; Aβ1-40 10 μM; cited from earlier work"}, "[9]": {"system": "serum tumor necrosis factor (TNF)", "settings": "cited from earlier work"}, "Aβ1-40": {"target": "Aβ1-40 (Homo sapiens, UniProt P05067)", "sequence (P05067 672-711 limits assumed)": "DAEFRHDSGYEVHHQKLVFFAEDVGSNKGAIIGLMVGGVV", "settings": "500 nM; 50 μM Aβ1-40; cited from earlier work"}, "neuroblastoma cells": {"system": "neuroblastoma cells", "settings": "300 nM; cited from earlier work"}, "β-secretase": {"system": "β-secretase", "settings": "300 nM; cited from earlier work"}, "CSF Aβ": {"system": "CSF Aβ", "settings": "in vivo; cited from earlier work"}, "[10]": {"system": "patients with Alzheimer's disease", "assay": "combined solanezumab phase III studies by standard of care subgroup", "type": "in vivo, human", "excerpt": "The notion that the Alzheimer brain, and the brain which is developing, but has not yet reached the stage of classical Alzheimer's disease with dementia is impaired by both excess Aβ in the region of plaques, and subnormal Aβ concentrations in the ISF bathing healthy tissue away from plaques, has important treatment implications. The clinical outcome measures used to evaluate interventions designed to alter the course of AD depend on the function of intact, healthy synapses. Anti-amyloid agents would not be expected to target plaques and spare healthy tissue, but rather to further decrease ISF Aβ, which is already reduced to about half of normal in patients with AD or classical MCI. […] (J Alz Dis 2013; 33, S111-S120) 3D6, the […] of bapineuzemab, impaired neuronal viability, as have large doses of γ- and β-secretase inhibitors. […] The combined solanezumab phase III studies have been analyzed for solanezumab's performance in patients with and without cholinesterase inhibitor and memantine treatments (called standard of care—SOC). […] ChEls might improve the function of the normal cells, allowing the antibody to show a net benefit because of its binding of Aβ where it is toxic."}, "[11]": {"system": "patients with Alzheimer's disease", "settings": "cited from earlier work"}, "CSF Aβ42": {"system": "CSF Aβ42", "settings": "single-dose study, dose-dependent; cited from earlier work"}, "mild to moderate AD": {"system": "mild to moderate AD", "settings": "cited from earlier work; for reduction in loss on the ADAS-cog: mild patients"}}, "note": "Read-outs that look alike come from different tables or passages of the source."}
{"compound": "CC12CC3CC(C)(C1)CC(N)(C3)C2", "note": "[Memantine]", "values": [{"measurement": "blockade of nicotinic receptors", "setting": "nicotinic receptors", "result": "potent blocker of nicotinic receptors"}]}
{"compound": "COc1ccc2c3c1O[C@H]1C[C@@H](O)C=C[C@@]31CCN(C)C2", "note": "[galantamine, (4aS,6R,8aS)-5,6,9,10,11,12-hexahydro-3-methoxy-11-methyl-4aH-[1]benzofuro[3a,3,2-ef][2]benzazepin-6-ol]", "values": [{"measurement": "Disability Assessment in Dementia percent difference versus placebo", "setting": "[1]", "result": 24, "unit": "%"}, {"measurement": "MMSE percent difference versus placebo", "setting": "[1]", "result": 34, "unit": "%"}, {"measurement": "reduction of MMSE deterioration versus placebo", "setting": "[1]; patients receiving memantine removed", "result": 48, "unit": "%"}, {"measurement": "enhancement of the depolarization caused by choline", "setting": "α7 nicotinic receptors", "result": "20.6±4.2", "unit": "%"}, {"measurement": "plasma half-life", "setting": "[2]", "result": "about 7 hours"}, {"measurement": "additional time remaining in the lighted compartment versus saline", "setting": "[3]; given during training, optimal performance", "result": "about 125 seconds"}, {"measurement": "best dose for memory enhancement", "setting": "[3]; passive avoidance", "result": 3, "unit": "mg/kg"}, {"measurement": "MMSE change", "setting": "[4]; 6 months", "result": 0.15}, {"measurement": "MMSE difference versus placebo", "setting": "[4]; 6 months", "result": 0.43}, {"measurement": "Disability Assessment in Dementia change", "setting": "[4]; 12 months", "result": "−4.55"}, {"measurement": "Disability Assessment in Dementia difference versus placebo", "setting": "[4]; 12 months", "result": 1.95}, {"measurement": "MMSE deterioration", "setting": "[4]; 24 months, patients receiving memantine removed", "result": 1.12, "unit": "points"}, {"measurement": "Disability Assessment in Dementia change", "setting": "[4]; 24 months", "result": "−8.16"}, {"measurement": "Disability Assessment in Dementia difference versus placebo", "setting": "[4]; 24 months", "result": 2.65}, {"measurement": "MMSE change", "setting": "[4]; 24 months", "result": "−1.41"}, {"measurement": "MMSE difference versus placebo", "setting": "[4]; 24 months", "result": 0.73}, {"measurement": "mortality less than in placebo patients", "setting": "[4]; in vivo", "result": 42, "unit": "%"}, {"measurement": "deaths", "setting": "MCI patients; 24-month study period, all patients entered", "result": 34}, {"measurement": "reduction of global atrophy (serial MRIs) versus placebo", "setting": "MCI patients; subpopulation of two-year MCI study", "result": 33, "unit": "%"}, {"measurement": "deaths", "setting": "MCI patients; within 30 days of stopping galantamine", "result": 14}, {"measurement": "insoluble Aβ in mouse brains", "setting": "APdE9 mice; 1 mg/kg/day", "result": "significantly reduced insoluble (fibrillar) Aβ1-40"}, {"measurement": "insoluble Aβ in mouse brains", "setting": "APdE9 mice; 5 mg/kg/day", "result": "reduced both Aβ1-40 and Aβ1-42"}, {"measurement": "soluble Aβ species", "setting": "APdE9 mice; 1 or 5 mg/kg/day", "result": "Neither dose significantly affected soluble Aβ species"}, {"measurement": "insoluble or soluble Aβ species", "setting": "[5]", "result": "did not reduce insoluble or soluble Aβ species"}, {"measurement": "synaptophysin levels", "setting": "[5]", "result": "significantly raise synaptophysin levels"}, {"measurement": "intracellular Aβ deposits", "setting": "[6]; after 15 days", "result": "decreased intracellular Aβ deposits"}, {"measurement": "ChAT activity", "setting": "[6]", "result": "restored ChAT activity"}, {"measurement": "protection of neurons against Aβ plus glutamate", "setting": "[7]; 0.1 μM", "result": "intermediate effect which is not statistically significant"}, {"measurement": "protection of neurons against Aβ plus glutamate", "setting": "[7]; 1.0 μM", "result": "protects neurons against Aβ plus glutamate"}, {"measurement": "Aβ1-40-induced apoptosis", "setting": "[8]", "result": "reduced Aβ1-40-induced apoptosis"}, {"measurement": "serum tumor necrosis factor (TNF)", "setting": "[9]; 1 mg/kg, administered prior to endotoxin", "result": "significantly reduces serum tumor necrosis factor (TNF)"}, {"measurement": "dose at which survival is improved significantly", "setting": "[9]; endotoxin", "result": 4, "unit": "mg/kg"}, {"measurement": "aggregation of Aβ1-40", "setting": "Aβ1-40", "result": "reduce aggregation"}, {"measurement": "release of Aβ1-40 and Aβ1-42", "setting": "neuroblastoma cells", "result": "decreased"}, {"measurement": "activity of β-secretase", "setting": "β-secretase", "result": "decreased"}, {"measurement": "effect on CSF Aβ", "setting": "CSF Aβ", "result": "does not lower CSF Aβ"}]}
{"compound": "Solanezumab: antibody directed at the central portion of Aβ", "values": [{"measurement": "benefit on the ADAS-cog versus placebo", "setting": "[10]; cholinesterase inhibitors, without memantine", "result": 2.1, "unit": "points"}, {"measurement": "excess cognitive deterioration on the ADAS-cog versus placebo", "setting": "[10]; patients not receiving cholinesterase inhibitors", "result": 3.6, "unit": "points"}, {"measurement": "excess cognitive deterioration on the ADAS-cog versus placebo", "setting": "[10]; patients on memantine only", "result": 4.1, "unit": "points"}, {"measurement": "LS Mean Change (SE) from Baseline to Week 80 in ADAS-Cog14 Scores", "setting": "[11]; AChEI + Memantine", "result": "9.8 (0.8)"}, {"measurement": "LS Mean Change (SE) from Baseline to Week 80 in ADAS-Cog14 Scores", "setting": "[11]; AChEI only", "result": "6.8 (0.5)"}, {"measurement": "LS Mean Change (SE) from Baseline to Week 80 in ADAS-Cog14 Scores", "setting": "[11]; Memantine only", "result": "11.2 (1.9)"}, {"measurement": "LS Mean Change (SE) from Baseline to Week 80 in ADAS-Cog14 Scores", "setting": "[11]; No SOC", "result": "6.5 (1.3)"}, {"measurement": "rise in CSF Aβ42", "setting": "CSF Aβ42", "result": "up to 35%"}, {"measurement": "reduction of functional decline (ADCS-ADL)", "setting": "mild to moderate AD; Expedition II", "result": 19, "unit": "%"}, {"measurement": "reduction in loss on the ADAS-cog", "setting": "mild to moderate AD; Expedition I", "result": 42, "unit": "%"}, {"measurement": "reduction in loss on the ADAS-cog", "setting": "mild to moderate AD; Expedition II", "result": 20, "unit": "%"}, {"measurement": "decrease of activities of daily living loss", "setting": "mild to moderate AD; mild subgroups combined", "result": 17, "unit": "%"}, {"measurement": "slowing of cognitive loss", "setting": "mild to moderate AD; mild subgroups combined", "result": 34, "unit": "%"}]}
